Laboratory results reported in patent US11365188B2, “JAK inhibitors” (priority 2018, dated 2022).

Tests used:
Format in all cases: biochemical
[1] = target: JAK1 (Homo sapiens, UniProt P23458); assay: JAK Kinase Assay (JAK1, Caliper EZ Reader, fluoresceinated peptide); conditions: ATP 76.5 μM; JAK1 10 nM; 120 minutes at room temperature; read-out: JAK1 inhibition
Protocol: JAK Kinase Assay 384-well plates in the left foot butoxy measured progress. The final assay volume was 25 μL, 250 nL 100× compounds, 10 μL enzyme mix and 15 μL substrate mix (fluoresceinated peptide and ATP) in assay buffer (20 mM HEPES (pH 7.5), 10 mM MgCl2, […], 0.5 mM EGTA and 2 mM DTT) prepared as test compound. By mixing the JAK1 with substrates and test compounds to start the reaction. There action mixture was incubated for 120 minutes at room temperature, then added 30 μL stop buffer for each sample to terminate the reaction with 50 mM EDTA. After termination of the kinase reaction, the proportion of phosphorylated product was determined as a fraction of total peptide substrate using Caliper EZ Reader II. Inhibition data were calculated by comparison with 100% of the reaction mixture without enzyme inhibition and vehicle-only reaction mixture billion % inhibition compared. The final concentration of reagents in the assays is: ATP, 76.5 μM; JAK1 fluorescent peptide (5-FAM-EEPLYWSFPAKKK-CONH2), 3 μM; JAK1, 10 nM, and DMSO, 1%. Dose response curve were generated to determine the concentration required for IC50 of JAK activity.

[2] = target: JAK2 (Homo sapiens, UniProt O60674); assay: JAK2 Assay (Caliper EZ Reader, fluoresceinated peptide); conditions: ATP 11.4 μM; JAK2 0.25 nM; 15 minutes at room temperature; read-out: JAK2 inhibition
Sequence of JAK2 (O60674 whole entry, species assumed): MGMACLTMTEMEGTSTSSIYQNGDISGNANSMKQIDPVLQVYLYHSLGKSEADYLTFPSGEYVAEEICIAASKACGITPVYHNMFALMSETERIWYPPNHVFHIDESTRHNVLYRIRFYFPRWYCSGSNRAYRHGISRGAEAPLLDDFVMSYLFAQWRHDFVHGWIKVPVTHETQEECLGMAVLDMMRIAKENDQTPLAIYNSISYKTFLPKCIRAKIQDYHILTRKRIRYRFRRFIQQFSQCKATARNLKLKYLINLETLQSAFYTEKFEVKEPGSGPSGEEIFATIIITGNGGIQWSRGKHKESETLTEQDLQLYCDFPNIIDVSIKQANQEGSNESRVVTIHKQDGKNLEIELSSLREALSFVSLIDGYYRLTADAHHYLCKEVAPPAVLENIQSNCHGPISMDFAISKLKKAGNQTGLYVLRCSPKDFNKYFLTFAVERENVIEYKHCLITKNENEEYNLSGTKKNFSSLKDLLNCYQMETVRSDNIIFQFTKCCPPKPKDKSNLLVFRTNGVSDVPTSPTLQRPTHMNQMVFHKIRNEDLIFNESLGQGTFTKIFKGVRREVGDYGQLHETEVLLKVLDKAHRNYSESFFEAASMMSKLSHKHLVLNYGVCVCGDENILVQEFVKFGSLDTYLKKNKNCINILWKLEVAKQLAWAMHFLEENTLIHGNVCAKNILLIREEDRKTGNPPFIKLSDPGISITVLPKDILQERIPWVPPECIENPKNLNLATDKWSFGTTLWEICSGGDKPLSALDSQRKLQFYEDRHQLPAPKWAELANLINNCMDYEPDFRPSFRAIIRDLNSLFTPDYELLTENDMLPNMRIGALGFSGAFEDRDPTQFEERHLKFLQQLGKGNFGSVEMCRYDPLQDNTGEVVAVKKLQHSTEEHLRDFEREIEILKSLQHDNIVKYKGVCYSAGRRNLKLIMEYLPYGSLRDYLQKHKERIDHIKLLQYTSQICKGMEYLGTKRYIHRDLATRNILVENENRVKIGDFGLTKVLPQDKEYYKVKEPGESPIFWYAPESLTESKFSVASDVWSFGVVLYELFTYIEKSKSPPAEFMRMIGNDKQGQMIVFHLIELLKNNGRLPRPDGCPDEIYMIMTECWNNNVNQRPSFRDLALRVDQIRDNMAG
Protocol: JAK2 Assay 384-well plates in the left foot butoxy measured progress. The final assay volume was 25 μL, 250 nL 100× compounds, 10 μL enzyme mix and 15 μL substrate mix (fluoresceinated peptide and ATP) in assay buffer (50 mM HEPES (pH 7.5), 10 mM MgCl2, 0.01% TritonX-100, 0.01% Brij35, 0.5 mM EGTA and 2 mM DTT) prepared as test compound By mixing the JAK2 with substrates and test compounds to start the reaction. The reaction mixture was incubated for 15 minutes at room temperature, then added 30 μL stop buffer for each sample to terminate the reaction with 50 mM EDTA. After termination of the kinase reaction, the proportion of phosphorylated product was determined as a fraction of total peptide substrate using Caliper EZ Reader 1 Inhibition data were calculated by comparison with 100% of the reaction mixture without enzyme inhibition and vehicle-only reaction mixture billion % inhibition compared. The final concentration of reagents in the assays is: ATP, 11.4 μM; JAK2 fluorescent peptide (5-FAM-EEPLYWSFPAKKK-CONH2), 3 μM; JAK2, 0.25 nM; and DMSO, 1%. Dose response curve were generated to determine the concentration required for IC50 of JAK2 activity.

[3] = target: T1, JAK3 (Homo sapiens, UniProt P52333); assay: JAK3 Assay (Caliper EZ Reader, fluoresceinated peptide); conditions: ATP 3.5 μM; JAK3 0.5 nM; 30 minutes at room temperature; read-out: JAK3 inhibition
T1 sequence (P52333 1-1124): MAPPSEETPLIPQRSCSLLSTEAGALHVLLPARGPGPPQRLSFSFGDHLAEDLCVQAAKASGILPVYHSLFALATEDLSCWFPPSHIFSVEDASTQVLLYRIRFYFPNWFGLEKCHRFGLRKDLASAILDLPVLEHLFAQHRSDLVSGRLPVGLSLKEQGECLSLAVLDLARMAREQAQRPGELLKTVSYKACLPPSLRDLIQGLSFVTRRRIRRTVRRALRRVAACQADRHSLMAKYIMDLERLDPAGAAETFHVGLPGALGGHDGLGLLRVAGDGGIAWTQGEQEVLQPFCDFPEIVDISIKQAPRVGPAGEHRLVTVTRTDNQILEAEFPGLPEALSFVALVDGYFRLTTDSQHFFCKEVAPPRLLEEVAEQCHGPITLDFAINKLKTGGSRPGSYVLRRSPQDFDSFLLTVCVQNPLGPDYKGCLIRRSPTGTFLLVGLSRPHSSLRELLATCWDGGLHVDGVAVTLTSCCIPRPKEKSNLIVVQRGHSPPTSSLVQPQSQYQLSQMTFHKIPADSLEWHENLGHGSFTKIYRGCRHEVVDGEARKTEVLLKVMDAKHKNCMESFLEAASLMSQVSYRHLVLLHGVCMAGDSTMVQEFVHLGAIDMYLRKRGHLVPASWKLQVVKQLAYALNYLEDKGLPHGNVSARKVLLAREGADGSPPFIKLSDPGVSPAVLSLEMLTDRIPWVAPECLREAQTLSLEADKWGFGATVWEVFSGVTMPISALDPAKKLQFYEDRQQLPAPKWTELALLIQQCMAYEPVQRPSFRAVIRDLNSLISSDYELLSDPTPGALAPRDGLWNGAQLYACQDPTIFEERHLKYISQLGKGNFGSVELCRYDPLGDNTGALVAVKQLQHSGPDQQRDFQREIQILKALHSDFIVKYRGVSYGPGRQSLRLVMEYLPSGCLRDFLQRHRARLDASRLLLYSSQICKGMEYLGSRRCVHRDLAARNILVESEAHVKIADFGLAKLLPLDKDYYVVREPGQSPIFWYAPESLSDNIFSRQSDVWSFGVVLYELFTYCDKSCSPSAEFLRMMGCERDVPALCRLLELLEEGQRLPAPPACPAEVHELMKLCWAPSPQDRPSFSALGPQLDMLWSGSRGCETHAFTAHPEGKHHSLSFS
Protocol: JAK3 Assay 384-well plates in the left foot butoxy measured progress. The final assay volume was 25 μL, 250 nL 100× compounds, 10 μL enzyme mix and 15 μL substrate mix (fluoresceinated peptide and ATP) in assay buffer (50 mM HEPES (pH 7.5), 10 mM MgCl2, 0.01% TritonX-100, 0.01% Brij35, 0.5 mM EGTA and 2 mM DTT) prepared as test compound. By mixing the JAK3 with substrates and test compounds to start the reaction. The reaction mixture was incubated for 30 minutes at room temperature, then added 30 μL stop buffer for each sample to terminate the reaction with 50 mM EDTA. After termination of the kinase reaction, the proportion of phosphorylated product was determined as a fraction of total peptide substrate using Caliper EZ Reader II. Inhibition data were calculated by comparison with 100% of the reaction mixture without enzyme inhibition and vehicle-only reaction mixture billion % inhibition compared. The final concentration of reagents in the assays is: ATP, 3.5 μM; JAK3 fluorescent peptide (5-FAM-EEPLYWSFPAKKK-CONH2), 3 μM; JAK3, 0.5 nM; and DMSO, 1%. Dose response curve were generated to determine the concentration required for IC50 of JAK3 activity.

Sequence of JAK1 (P23458 whole entry, species assumed): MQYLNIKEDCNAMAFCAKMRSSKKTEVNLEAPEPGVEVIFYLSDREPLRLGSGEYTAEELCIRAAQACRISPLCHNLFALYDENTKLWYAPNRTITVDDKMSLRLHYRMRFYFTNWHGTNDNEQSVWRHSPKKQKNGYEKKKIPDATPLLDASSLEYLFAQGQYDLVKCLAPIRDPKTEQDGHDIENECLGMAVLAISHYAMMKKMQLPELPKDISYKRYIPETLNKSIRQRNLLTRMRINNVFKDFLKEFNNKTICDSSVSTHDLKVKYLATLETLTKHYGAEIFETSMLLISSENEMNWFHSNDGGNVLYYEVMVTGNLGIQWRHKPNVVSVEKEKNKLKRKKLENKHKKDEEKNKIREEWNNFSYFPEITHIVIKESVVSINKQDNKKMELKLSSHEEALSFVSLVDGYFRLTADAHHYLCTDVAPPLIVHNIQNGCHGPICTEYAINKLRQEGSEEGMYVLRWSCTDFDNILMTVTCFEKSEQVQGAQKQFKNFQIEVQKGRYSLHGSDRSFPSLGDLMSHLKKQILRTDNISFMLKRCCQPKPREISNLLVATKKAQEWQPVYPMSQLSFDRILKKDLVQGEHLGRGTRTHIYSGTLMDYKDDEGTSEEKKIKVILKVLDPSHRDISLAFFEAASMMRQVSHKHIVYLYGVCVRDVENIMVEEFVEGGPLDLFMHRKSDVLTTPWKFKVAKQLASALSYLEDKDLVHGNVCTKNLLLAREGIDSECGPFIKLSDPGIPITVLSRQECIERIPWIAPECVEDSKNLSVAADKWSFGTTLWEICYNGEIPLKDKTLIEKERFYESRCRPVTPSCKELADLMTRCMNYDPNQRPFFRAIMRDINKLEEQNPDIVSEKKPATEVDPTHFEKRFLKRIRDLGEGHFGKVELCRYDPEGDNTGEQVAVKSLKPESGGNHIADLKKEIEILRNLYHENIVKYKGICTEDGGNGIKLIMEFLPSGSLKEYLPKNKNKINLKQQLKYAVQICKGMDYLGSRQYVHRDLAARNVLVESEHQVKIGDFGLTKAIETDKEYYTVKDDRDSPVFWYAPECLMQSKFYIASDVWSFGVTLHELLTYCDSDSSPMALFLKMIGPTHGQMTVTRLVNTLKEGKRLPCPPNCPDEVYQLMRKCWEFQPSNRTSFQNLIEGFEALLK

## CN(c1ncnc2[nH]ccc12)C1CC2(C1)CN(C(=O)CC#N)C2 [Compound 2, 3-(6-(methyl(7H-pyrrolo[2,3-d]pyrimidin-4-yl)amino)-2-azaspiro[3.3]heptan-2-yl)-3-oxopropanenitrile]
[1]
  IC50: 100 to 1000 nM
[2]
  IC50: 100 to 1000 nM
[3]
  IC50: 1000 to 10000 nM

## CN(c1ncnc2[nH]ccc12)C1CC2(C1)CN(C(=O)CO)C2 [Compound 3, 2-hydroxy-1-(6-(methyl(7H-pyrrolo[2,3-d]pyrimidin-4-yl)amino)-2-azaspiro[3.3]heptan-2-yl)ethanone]
[1]
  IC50: 100 to 1000 nM
[2]
  IC50: 100 to 1000 nM
[3]
  IC50: 1000 to 10000 nM

## CC(=O)N1CC2(CC(N(C)c3ncnc4[nH]ccc34)C2)C1 [Compound 4, 1-(6-(methyl(7H-pyrrolo[2,3-d]pyrimidin-4-yl)amino)-2-azaspiro[3.3]heptan-2-yl)ethanone]
[1]
  IC50: 100 to 1000 nM
[2]
  IC50: 100 to 1000 nM
[3]
  IC50: ≥ 10000 nM

## COc1ccc(NC(=O)N2CCC3(CCC(N(C)c4ncnc5[nH]ccc45)CC3)CC2)cc1 [Compound 119, N-(4-methoxyphenyl)-9-(methyl(7H-pyrrolo[2,3-d]pyrimidin-4-yl)amino)-3-azaspiro[5.5]undecane-3-carboxamide]
[1]
  IC50: 10 to 100 nM

## COc1cccc(NC(=O)N2CCC3(CCC(N(C)c4ncnc5[nH]ccc45)CC3)CC2)c1 [Compound 120, N-(3-methoxyphenyl)-9-(methyl(7H-pyrrolo[2,3-d]pyrimidin-4-yl)amino)-3-azaspiro[5.5]undecane-3-carboxamide]
[1]
  IC50: ≤ 10 nM

## CN(c1ncnc2[nH]ccc12)C1CCC2(CC1)CCN(C(=O)Nc1ccc(C#N)cc1)CC2 [Compound 121, N-(4-cyanophenyl)-9-(methyl(7H-pyrrolo[2,3-d]pyrimidin-4-yl)amino)-3-azaspiro[5.5]undecane-3-carboxamide]
[1]
  IC50: 10 to 100 nM

## CN(c1ncnc2[nH]ccc12)C1CCC2(CC1)CCN(C(=O)Nc1cccc(C#N)c1)CC2 [Compound 122, N-(3-cyanophenyl)-9-(methyl(7H-pyrrolo[2,3-d]pyrimidin-4-yl)amino)-3-azaspiro[5.5]undecane-3-carboxamide]
[1]
  IC50: ≤ 10 nM

## CN(c1ncnc2[nH]ccc12)C1CCC2(CC1)CCN(C(=O)Nc1cccc(C#N)n1)CC2 [Compound 123, N-(6-cyanopyridin-2-yl)-9-(methyl(7H-pyrrolo[2,3-d]pyrimidin-4-yl)amino)-3-azaspiro[5.5]undecane-3-carboxamide]
[1]
  IC50: ≤ 10 nM

## COc1cccc(NC(=O)N2CCC3(CCC(N(C)c4ncnc5[nH]ccc45)CC3)CC2)n1 [Compound 124, N-(6-methoxpyridin-2-yl)-9-(methyl(7H-pyrrolo[2,3-d]pyrimidin-4-yl)amino)-3-azaspiro[5.5]undecane-3-carboxamide]
[1]
  IC50: 10 to 100 nM

## CN(c1ncnc2[nH]ccc12)C1CCC2(CC1)CCN(C(=O)Nc1ccc(C#N)cn1)CC2 [Compound 125, N-(5-cyanopyridin-2-yl)-9-(methyl(7H-pyrrolo[2,3-d]pyrimidin-4-yl)amino)-3-azaspiro[5.5]undecane-3-carboxamide]
[1]
  IC50: 1000 to 10000 nM

## Cc1cnc(NC(=O)N2CCC3(CCC(N(C)c4ncnc5[nH]ccc45)CC3)CC2)s1 [Compound 126, 9-(methyl(7H-pyrrolo[2,3-d]pyrimidin-4-yl)amino)-N-(5-methylthiazol-2-yl)-3-azaspiro[5.5]undecane-3-carboxamide]
[1]
  IC50: 100 to 1000 nM

## CN(c1ncnc2[nH]ccc12)C1CCC2(CC1)CCN(C(=O)Nc1ccn(C)n1)CC2 [Compound 127, 9-(methyl(7H-pyrrolo[2,3-d]pyrimidin-4-yl)amino)-N-(1-methyl-1H-pyrazol-3-yl)-3-azaspiro[5.5]undecane-3-carboxamide]
[1]
  IC50: 100 to 1000 nM

## Cc1cnc(NC(=O)N2CCC3(CCC(N(C)c4ncnc5[nH]ccc45)CC3)CC2)cn1 [Compound 128, 9-(methyl(7H-pyrrolo[2,3-d]pyrimidin-4-yl)amino)-N-(5-methylpyrazin-2-yl)-3-azaspiro[5.5]undecane-3-carboxamide]
[1]
  IC50: 1000 to 10000 nM

## COc1cnc(NC(=O)N2CCC3(CCC(N(C)c4ncnc5[nH]ccc45)CC3)CC2)cn1 [Compound 129, N-(5-methoxypyrazin-2-yl)-9-(methyl(7H-pyrrolo[2,3-d]pyrimidin-4-yl)amino)-3-azaspiro[5.5]undecane-3-carboxamide]
[1]
  IC50: 10 to 100 nM

## COc1ccc(NC(=O)N2CCC3(CCC(N(C)c4ncnc5[nH]ccc45)CC3)CC2)nc1 [Compound 130, N-(5-methoxypyridin-2-yl)-9-(methyl(7H-pyrrolo[2,3-d]pyrimidin-4-yl)amino)-3-azaspiro[5.5]undecane-3-carboxamide]
[1]
  IC50: 10 to 100 nM

## CN(c1ncnc2[nH]ccc12)C1CCC2(CC1)CCN(C(=O)Nc1ncc(F)s1)CC2 [Compound 131, N-(5-fluorothiazol-2-yl)-9-(methyl(7H-pyrrolo[2,3-d]pyrimidin-4-yl)amino)-3-azaspiro[5.5]undecane-3-carboxamide]
[1]
  IC50: 10 to 100 nM

## CN(c1ncnc2[nH]ccc12)C1CCC2(CC1)CCN(C(=O)Nc1ncc(Cl)s1)CC2 [Compound 132, N-(5-chlorothiazol-2-yl)-9-(methyl(7H-pyrrolo[2,3-d]pyrimidin-4-yl)amino)-3-azaspiro[5.5]undecane-3-carboxamide]
[1]
  IC50: 100 to 1000 nM

## CN(c1ncnc2[nH]ccc12)C1CCC2(CC1)CCN(C(=O)Nc1ncc(C#N)s1)CC2 [Compound 133, N-(5-cyanothiazol-2-yl)-9-(methyl(7H-pyrrolo[2,3-d]pyrimidin-4-yl)amino)-3-azaspiro[5.5]undecane-3-carboxamide]
[1]
  IC50: ≤ 10 nM

## CN(c1ncnc2[nH]ccc12)C1CCC2(CC1)CCN(C(=O)Nc1nccs1)CC2 [Compound 134, 9-(methyl(7H-pyrrolo[2,3-d]pyrimidin-4-yl)amino)-N-(thiazol-2-yl)-3-azaspiro[5.5]undecane-3-carboxamide]
[1]
  IC50: ≤ 10 nM
